# Experimental data as given in patent US5270310A, “N-aminoalkyl amide inhibitors of protein kinase C” (Sphinx Pharmaceuticals Corporation, priority 1991, dated 1993).
# Read-outs that look alike come from different tables or passages of the source.
# Assays:
# [1] = test system: MCF-7 human breast tumor cell line; assay: Human Tumor Cell Growth Inhibition, MCF-7; type: cell-based; conditions: for IC50: Homo sapiens, MCF7, 3H-thymidine incorporation, value outside parentheses (not salt); for inhibit growth of MCF-7 cells: result in words
# Procedure: MCF-7 a human breast tumor cell line and MCF-7/ADR an adriamycin resistant line of MCF-7 cells were obtained from the National Cancer Institute, Frederick, Md. […] Human tumor cells are trypsinized (0.05% trypsin, GIBCO), counted with a hemacytometer and seeded at a concentration of 10,000 cells/well in a 96 well microtiter plate. After allowing cells to attach to the surface overnight, the culture medium is aspirated and replaced with 100 μl of fresh medium. Test agents are diluted to determine dose response at 2× final concentration and added in quadruplicate at 100 μl/well to bring the total volume of each well to 200 μl. The microtiter plate is then incubated at 37° C. 5% CO2 overnight (18-24 hrs) before ^3 H-thymidine is added at a concentration of 0.5 μCi/well in 50 μl culture medium. The plate is incubated again for 4 hrs under the same conditions as above. Supernatant is then aspirated and 50 μl trypsin (0.05%, GIBCO) is added to each well. Cells are checked microscopically to determine detachment from surfaces, and plates are then harvested with a cell harvester (PHD, Cambridge Technology, Inc.) Filter papers corresponding to wells are placed in scintillation vials and counted to determine the amount of ^3 H-thymidine incorporated by the cells. Test agent response is compared to a positive control of cell wells with culture media only to determine the IC50. IC50 is the concentration of test compound required to inhibit fifty per cent of the incorporation of ^3 H-thymidine into proliferating cells not exposed to test agent. Uptake of ^3 H-thymidine is a standard test for measuring the metabolism of cells. Cells which are actively proliferating take up ^3 H-thymidine, whereas cells that are not proliferating take up ^3 H-thymidine at much slower rates or not at all. Test agents that inhibit the uptake of ^3 H-thymidine thus slow the growth of cells.
# [2] = test system: NHEK cells (proliferating keratinocytes); assay: Human Keratinocyte Inhibition; type: cell-based; conditions: 3H-thymidine incorporation
# Procedure: Proliferating keratinocytes (NHEK cells purchased from Clonetics, Inc., San Diego, Calif.) in second passage were grown in Keratinocyte Growth Medium (KGM) (Clonetics, Inc.) Cells are trypsinized (0.025% trypsin, Clonetics), counted with a hemacytometer (Scientific Products), and seeded at a concentration of 2,500 cells/well in a 96 well microtiter plate. After allowing cells to attach to the surface overnight, the culture medium is aspirated and replaced with 100 μl of fresh KGM. […] IC50 is the concentration of test compound required to inhibit fifty percent of the incorporation of ^3 H-thymidine into proliferating cells not exposed to test agent.
# [3] = target: T1, protein kinase (PKA), catalytic subunit (Homo sapiens, UniProt P17612); assay: cAMP-Dependent Protein Kinase (PKA) Assay; type: biochemical; conditions: free base
# T1 construct: purchased Sigma Chemical Company, St. Louis, Mo
# Procedure: Compound found to be inhibitors of protein kinase C are tested for inhibitory activity against protein kinase (PKA). This enzyme, like protein kinase C, plays an important role in cell-cell communication and is activated by a second messenger, cAMP. Secondary screening against PKA is useful for ascertaining the selectivity of the compounds of the invention. The catalytic subunit of PKA (Sigma Chemical Company, St. Louis, Mo.) is mixed with buffer before addition of the inhibitor in dimethylsulfoxide (DMSO). The assay is started by the addition of 32P-ATP and the reaction is allowed to proceed for 10 min before stopping with 25% trichloroacetic acid (TCA) and 1.0 mg/ml bovine serum albumin (BSA). The phosphorylated protein is isolated by filtration and the radioactivity is counted in a beta scintillation counter.
# [4] = test system: PMA-stimulated neutrophils; assay: Neutrophil Superoxide Anion (O2^-) Release Assay; type: cell-based, human; conditions: for IC50: Homo sapiens, Neutrophil, PMA-stimulated; for inhibit O2^- production by PMA-stimulated neutrophils: result in words
# Procedure: Neutrophils are isolated form whole blood collected from human volunteers. All reagent materials are obtained from Sigma Chemical Company with the exception of isotonic saline (Travenol Laboratories, Inc., Deerfield, Ill.) and lymphocyte separation medium (Organon Teknika, Durham, N.C.).
# Whole blood is drawn and mixed with sodium heparin (final conc. 10 units/ml) to prevent clotting. An equal volume of dextran (3.0%) in isotonic saline is added, mixed, and allowed to settle for 30 min to bind red blood cells (RBC). Supernatant is removed, underlayered with lymphocyte separation medium and centrifuged for 40 min at 400 xg in a centrifuge (Beckman GPR, Norcross, Ga). The pellet is alternately resuspended in 0.2% and 1.6% NaCl to lyse RBCs before washing with Hank's Balanced Salt Solution (HBSS). The washed pellet is resuspended in 10 mL HBSS and placed on ice before counting on a hemacytometer.
# The neutrophil cell concentration is adjusted to 2×10^6 cells/ml with HBSS before adding 0.8 mL cells to 12×75 mm polypropylene test tubes (Fisher Scientific). Test agents are diluted to determine dose response and added at 10× final concentration at a volume of 0.1 mL/tube in duplicate. Then 10× concentrations of cytochrome C (15 mg/ml) with catalase (3000 units/ml) either alone or containing 25 ng/ml phorbol 12-myristate 13-acetate (PMA) are added at a volume of 0.1 mL/tube and incubated at 37° C. for 30 min before stopping the reaction by placing tubes on ice. Tubes are then centrifuged at 900 xg for 10 min, 0.5 mL supernatant is removed and added to 0.5 mL H2 O in a microcuvette. Optical density (OD) of cytochrome c is read in a spectrophotometer (Shimadzu) at 550 nm. The ΔOD of cytochrome c is obtained between PMA-stimulated and non-stimulated tubes, and the dose responses of the test agents are compared to the positive controls (which contain HBSS in place of test agents). PMA stimulates O2^- production which reduces cytochrome c. Reducing cytochrome c increases its absorbance, and the change in OD of cytochrome c is proportional to the amount of O2^- produced by PMA stimulation. Inhibition of the O2^- burst by test compounds of the invention is seen as a reduction in the change in optical density. Inhibition is expressed as IC50 μM and is the amount of test compound that will inhibit fifty percent of the PMA-stimulated respiratory outburst, i.e. O2^- production.
# protein kinase C (PKC) = assay: Protein Kinase C Inhibition; type: biochemical, rat
# Procedure: The protein kinase C (PKC) assay is designed to duplicate the in vivo conditions required for protein kinase C function. Therefore, pH, salt and cofactor concentrations are similar to physiologic levels. Histone H1 (lysine rich) is used in the assay as the phosphorylation acceptor protein because it is readily available and serves as a good substrate for protein kinase C. The enzyme is prepared from rat brain and is purified to apparent homogeneity as determined by a single band on silver stained SDS-polyacrylamide. Studies on the mechanism of regulation of protein kinase C by phospholipids, DAG and Ca^+2 have been hampered by the physical properties of the lipid cofactors. In the screening assay, phosphatidylserine (PS) and DAG are co-sonicated to form unilamellar and multilamellar vesicles. The concentration of lipids in the assay are suboptimal to maximize the detection potential of the assay for inhibitors. […] The assay is started with the addition of enzyme and stopped after 10 min by the addition of 25% trichloroacetic acid (TCA) and 1.0 mg/ml bovine serum albumin (BSA). The radioactive histone product is retained and washed on glass fiber filters that allow the unreacted ^32 P-ATP to pass through. The amount of phosphorylation is determined by the radioactivity measured in a scintillation counter. Controls are included in every assay to measure background activity in the absence of enzyme, activity in the absence of lipids and the maximum enzyme activity with saturating levels of the activator lipids.
# Both the free base and the HCl salt were tested.
# [5] = test system: MCF-7 human breast tumor cell line; assay: Human Tumor Cell Growth Inhibition, MCF-7; type: cell-based; conditions: MCF7, 3H-thymidine incorporation, value in parentheses: salt
# [6] = value outside parentheses (not salt), read-out: NHEK IC50
# [7] = value outside parentheses (not salt), read-out: Neutrophil Superoxide Release IC50
# [8] = value in parentheses: salt, read-out: NHEK IC50 (salt)
# [9] = value in parentheses: salt, read-out: Neutrophil Superoxide Release IC50 (salt)
SMILES,IC50 [1],"IC50 [2, 6]",IC50 [3],"IC50 [4, 7]",IC50 (protein kinase C (PKC); HCl salt),IC50 (protein kinase C (PKC); free base),IC50 [5],inhibit growth of MCF-7 cells [1],"IC50 [2, 8]","IC50 [4, 9]",inhibit O2^- production by PMA-stimulated neutrophils ([4]; HCl salt),inhibit O2^- production by PMA-stimulated neutrophils ([4]; compound itself)
"CCCCCCCCCCCCCCCC(=O)N(CCCN(C)C)C(C)C [Compound 9, N,N-Dimethyl-N'-(2-propyl)-N'-hexadecanoyl-1,3-propanediamine]",5.1 µM,0.14 µM,172 µM,0.9 µM,130 µM,146 µM,–,–,–,–,–,–
"CCCCCCCCCCCCCCCC(=O)NCCCN(CC)CC [Compound 10, N,N-Diethyl-N'-hexadecanoyl-1,3-propanediamine]",–,1.56 µM,> 218 µM,–,–,131 µM,–,–,–,–,–,–
"CCCCCCCCCCCCCCCC(=O)N(C)CCN(C)C [Compound 25, N,N,N'-Trimethyl-N'-hexadecanoyl-1,3-ethanediamine]",–,–,> 218 µM,–,100 µM,92 µM,–,–,–,–,–,–
"CCCCCCCCCCCCCCCCN(CCCN(C)C)C(C)=O [Compound 20, N-Acetyl-N-hexadecyl-N',N'-dimethyl-1,3-propanediamine]",–,1.3 µM,67 µM,1.1 µM,44 µM,69 µM,–,–,–,–,–,–
"CCCCCCCCCCCCCCCC(=O)N(CCC)CCCN(C)C [Compound 8, N,N-Dimethyl-N'-hexadecanoyl-N'-propyl-1,3-propanediamine]",9.7 µM,1.03 µM,> 218 µM,2.9 µM,48 µM,131 µM,–,–,–,–,–,–
CCCCCCCCCCCCCCCC(=O)N(C)CCN(C)C [Compound 3],–,–,–,–,66 µM,40 µM,–,–,–,–,–,–
"CCCCCCCCCCCCCCCC(=O)N(C)CCCN(C)C [Compound 4, N-Hexadecanoyl-N,N',N'-trimethyl-1,3-propanediamine]",1.5 µM,0.8 µM,90 µM,45 µM,57 µM,107 µM,2.9 µM,effectively inhibit growth of MCF-7 cells at micromolar concentrations,2.4 µM,2.39 µM,inhibit O2^- production by PMA-stimulated neutrophils at micromolar concentrations,inhibit O2^- production by PMA-stimulated neutrophils at micromolar concentrations
"CCCCCCCCCCCCCCCC(=O)NCCC[N+](C)(C)C [Compound 15, N-Hexadecanoyl-3-trimethylammoniumpropylamine iodide]",5 µM,3.3 µM,–,–,–,24 µM,–,–,–,–,–,–
"CCCCCCCCCCCCCCCC(=O)N(CC)CCCN(C)C [Compound 7, N,N-Dimethyl-N'-ethyl-N'-hexadecanoyl-1,3-propanediamine]",–,–,119 µM,–,38 µM,50 µM,–,–,–,–,–,–
"CCCCCCCCCCCCCCCC(=O)NCCCN(C)C [Compound 6, N,N-Dimethyl-N'hexadecanoyl-1,3-propanediamine]",4.5 µM,–,140 µM,2.32 µM,50 µM,50 µM,3.5 µM,effectively inhibit growth of MCF-7 cells at micromolar concentrations,0.78 µM,2.8 µM,inhibit O2^- production by PMA-stimulated neutrophils at micromolar concentrations,inhibit O2^- production by PMA-stimulated neutrophils at micromolar concentrations
CCCCCCCCCCCCCCCC(=O)N(CCC[N+]1(C)CCOCC1)Cc1ccccc1 [Compound 22],15.4 µM,1.6 µM,< 44 µM,–,–,45 µM,–,–,–,–,–,–
